Test results as given in PubChem BioAssay AID1259407 (Chemical Carcinogenesis Research Information System (CCRIS), 2018).
Active and inactive are the calls of the source. No rule for the calls is given here.

Test system: CCRIS mutagenicity, Ames/micronucleus/aberration tests
Experiment: CCRIS mutagenicity studies

In the case of `O=C(O)CN(CCN(CC(=O)O)CC(=O)O)CC(=O)O`, the mutagenic call (Test System: AMES SALMONELLA TYPHIMURIUM, Strain/Indicator: TA97, Metabolic Activation: HAMSTER, LIVER, S-9, AROCLOR 1254 (10%), Method: PREINCUBATION) is reported as “inactive; negative”, the mutagenic call (Test System: AMES SALMONELLA TYPHIMURIUM, Strain/Indicator: TA97, Metabolic Activation: HAMSTER, LIVER, S-9, AROCLOR 1254 (30%), Method: PREINCUBATION) is reported as “inactive; negative” and the mutagenic call (Test System: AMES SALMONELLA TYPHIMURIUM, Strain/Indicator: TA97, Metabolic Activation: NONE, Method: PREINCUBATION) is reported as “inactive; negative”. The mutagenic call (Test System: AMES SALMONELLA TYPHIMURIUM, Strain/Indicator: TA97, Metabolic Activation: RAT, LIVER, S-9, AROCLOR 1254 (10%), Method: PREINCUBATION) was “inactive; negative”, the mutagenic call (Test System: AMES SALMONELLA TYPHIMURIUM, Strain/Indicator: TA97, Metabolic Activation: RAT, LIVER, S-9, AROCLOR 1254 (30%), Method: PREINCUBATION) was “inactive; negative” and the mutagenic call (Test System: AMES SALMONELLA TYPHIMURIUM, Strain/Indicator: TA97, Metabolic Activation: S-9, Method: PREINCUBATION) was “inactive; negative”. For the same compound, the mutagenic call (Test System: AMES SALMONELLA TYPHIMURIUM, Strain/Indicator: TA98, Metabolic Activation: HAMSTER, LIVER, S-9, AROCLOR 1254 (10%), Method: PREINCUBATION) was “inactive; negative”, the mutagenic call (Test System: AMES SALMONELLA TYPHIMURIUM, Strain/Indicator: TA98, Metabolic Activation: HAMSTER, LIVER, S-9, AROCLOR 1254 (30%), Method: PREINCUBATION) was “inactive; negative” and the mutagenic call (Test System: AMES SALMONELLA TYPHIMURIUM, Strain/Indicator: TA98, Metabolic Activation: HAMSTER, LIVER, S-9, AROCLOR 1254, Method: STANDARD PLATE) was “inactive; negative”. For the same compound, the mutagenic call (Test System: AMES SALMONELLA TYPHIMURIUM, Strain/Indicator: TA98, Metabolic Activation: NONE, Method: PREINCUBATION) was “inactive; negative”, the mutagenic call (Test System: AMES SALMONELLA TYPHIMURIUM, Strain/Indicator: TA98, Metabolic Activation: NONE, Method: STANDARD PLATE) was “inactive; negative” and the mutagenic call (Test System: AMES SALMONELLA TYPHIMURIUM, Strain/Indicator: TA98, Metabolic Activation: RAT LIVER S-9, PHENOBARBITAL AND BETA-NAPHTHOFLAVONE, Method: PREINCUBATION) was “inactive; negative”. For the same compound, the mutagenic call (Test System: AMES SALMONELLA TYPHIMURIUM, Strain/Indicator: TA98, Metabolic Activation: RAT, LIVER, S-9, AROCLOR 1254 (10%), Method: PREINCUBATION) was “inactive; negative”, the mutagenic call (Test System: AMES SALMONELLA TYPHIMURIUM, Strain/Indicator: TA98, Metabolic Activation: RAT, LIVER, S-9, AROCLOR 1254 (30%), Method: PREINCUBATION) was “inactive; negative” and the mutagenic call (Test System: AMES SALMONELLA TYPHIMURIUM, Strain/Indicator: TA98, Metabolic Activation: RAT, LIVER, S-9, AROCLOR 1254, Method: STANDARD PLATE) was “inactive; negative”. For the same compound, the mutagenic call (Test System: AMES SALMONELLA TYPHIMURIUM, Strain/Indicator: TA100, Metabolic Activation: HAMSTER, LIVER, S-9, AROCLOR 1254 (10%), Method: PREINCUBATION) was “inactive; negative”, the mutagenic call (Test System: AMES SALMONELLA TYPHIMURIUM, Strain/Indicator: TA100, Metabolic Activation: HAMSTER, LIVER, S-9, AROCLOR 1254 (30%), Method: PREINCUBATION) was “inactive; negative” and the mutagenic call (Test System: AMES SALMONELLA TYPHIMURIUM, Strain/Indicator: TA100, Metabolic Activation: HAMSTER, LIVER, S-9, AROCLOR 1254, Method: STANDARD PLATE) was “inactive; negative”. For the same compound, the mutagenic call (Test System: AMES SALMONELLA TYPHIMURIUM, Strain/Indicator: TA100, Metabolic Activation: NONE, Method: PREINCUBATION) was “inactive; negative”, the mutagenic call (Test System: AMES SALMONELLA TYPHIMURIUM, Strain/Indicator: TA100, Metabolic Activation: NONE, Method: STANDARD PLATE) was “inactive; negative” and the mutagenic call (Test System: AMES SALMONELLA TYPHIMURIUM, Strain/Indicator: TA100, Metabolic Activation: RAT LIVER S-9, PHENOBARBITAL AND BETA-NAPHTHOFLAVONE, Method: PREINCUBATION) was “inactive; negative”. The mutagenic call (Test System: AMES SALMONELLA TYPHIMURIUM, Strain/Indicator: TA100, Metabolic Activation: RAT, LIVER, S-9, AROCLOR 1254 (10%), Method: PREINCUBATION) was “inactive; negative”, the mutagenic call (Test System: AMES SALMONELLA TYPHIMURIUM, Strain/Indicator: TA100, Metabolic Activation: RAT, LIVER, S-9, AROCLOR 1254 (30%), Method: PREINCUBATION) was “inactive; negative” and the mutagenic call (Test System: AMES SALMONELLA TYPHIMURIUM, Strain/Indicator: TA100, Metabolic Activation: RAT, LIVER, S-9, AROCLOR 1254, Method: STANDARD PLATE) was “inactive; negative”. For the same compound, the mutagenic call (Test System: AMES SALMONELLA TYPHIMURIUM, Strain/Indicator: TA102, Metabolic Activation: NONE, Method: PREINCUBATION) was “inactive; negative”, the mutagenic call (Test System: AMES SALMONELLA TYPHIMURIUM, Strain/Indicator: TA102, Metabolic Activation: RAT LIVER S-9, PHENOBARBITAL AND BETA-NAPHTHOFLAVONE, Method: PREINCUBATION) was “inactive; negative” and the mutagenic call (Test System: AMES SALMONELLA TYPHIMURIUM, Strain/Indicator: TA102, Metabolic Activation: S-9, Method: PREINCUBATION) was “inactive; negative”. The mutagenic call (Test System: AMES SALMONELLA TYPHIMURIUM, Strain/Indicator: TA104, Metabolic Activation: NONE, Method: PREINCUBATION) was “inactive; negative”, the mutagenic call (Test System: AMES SALMONELLA TYPHIMURIUM, Strain/Indicator: TA104, Metabolic Activation: RAT LIVER S-9, PHENOBARBITAL AND BETA-NAPHTHOFLAVONE, Method: PREINCUBATION) was “inactive; negative” and the mutagenic call (Test System: AMES SALMONELLA TYPHIMURIUM, Strain/Indicator: TA1535, Metabolic Activation: HAMSTER, LIVER, S-9, AROCLOR 1254 (10%), Method: PREINCUBATION) was “inactive; negative”. For the same compound, the mutagenic call (Test System: AMES SALMONELLA TYPHIMURIUM, Strain/Indicator: TA1535, Metabolic Activation: HAMSTER, LIVER, S-9, AROCLOR 1254 (30%), Method: PREINCUBATION) was “inactive; negative”, the mutagenic call (Test System: AMES SALMONELLA TYPHIMURIUM, Strain/Indicator: TA1535, Metabolic Activation: HAMSTER, LIVER, S-9, AROCLOR 1254, Method: STANDARD PLATE) was “inactive; negative” and the mutagenic call (Test System: AMES SALMONELLA TYPHIMURIUM, Strain/Indicator: TA1535, Metabolic Activation: NONE, Method: PREINCUBATION) was “inactive; negative”. For the same compound, the mutagenic call (Test System: AMES SALMONELLA TYPHIMURIUM, Strain/Indicator: TA1535, Metabolic Activation: NONE, Method: STANDARD PLATE) was “inactive; negative”, the mutagenic call (Test System: AMES SALMONELLA TYPHIMURIUM, Strain/Indicator: TA1535, Metabolic Activation: RAT LIVER S-9, PHENOBARBITAL AND BETA-NAPHTHOFLAVONE, Method: PREINCUBATION) was “inactive; negative” and the mutagenic call (Test System: AMES SALMONELLA TYPHIMURIUM, Strain/Indicator: TA1535, Metabolic Activation: RAT, LIVER, S-9, AROCLOR 1254 (10%), Method: PREINCUBATION) was “inactive; negative”. For the same compound, the mutagenic call (Test System: AMES SALMONELLA TYPHIMURIUM, Strain/Indicator: TA1535, Metabolic Activation: RAT, LIVER, S-9, AROCLOR 1254 (30%), Method: PREINCUBATION) was “inactive; negative”, the mutagenic call (Test System: AMES SALMONELLA TYPHIMURIUM, Strain/Indicator: TA1535, Metabolic Activation: RAT, LIVER, S-9, AROCLOR 1254, Method: STANDARD PLATE) was “inactive; negative” and the mutagenic call (Test System: AMES SALMONELLA TYPHIMURIUM, Strain/Indicator: TA1537, Metabolic Activation: HAMSTER, LIVER, S-9, AROCLOR 1254, Method: STANDARD PLATE) was “inactive; negative”. For the same compound, the mutagenic call (Test System: AMES SALMONELLA TYPHIMURIUM, Strain/Indicator: TA1537, Metabolic Activation: NONE, Method: PREINCUBATION) was “inactive; negative”, the mutagenic call (Test System: AMES SALMONELLA TYPHIMURIUM, Strain/Indicator: TA1537, Metabolic Activation: NONE, Method: STANDARD PLATE) was “inactive; negative” and the mutagenic call (Test System: AMES SALMONELLA TYPHIMURIUM, Strain/Indicator: TA1537, Metabolic Activation: RAT LIVER S-9, PHENOBARBITAL AND BETA-NAPHTHOFLAVONE, Method: PREINCUBATION) was “inactive; negative”. The mutagenic call (Test System: AMES SALMONELLA TYPHIMURIUM, Strain/Indicator: TA1537, Metabolic Activation: RAT, LIVER, S-9, AROCLOR 1254, Method: STANDARD PLATE) was “inactive; negative”, the mutagenic call (Test System: AMES SALMONELLA TYPHIMURIUM, Strain/Indicator: TA1538, Metabolic Activation: HAMSTER, LIVER, S-9, AROCLOR 1254, Method: STANDARD PLATE) was “inactive; negative” and the mutagenic call (Test System: AMES SALMONELLA TYPHIMURIUM, Strain/Indicator: TA1538, Metabolic Activation: NONE, Method: STANDARD PLATE) was “inactive; negative”. The mutagenic call (Test System: AMES SALMONELLA TYPHIMURIUM, Strain/Indicator: TA1538, Metabolic Activation: RAT, LIVER, S-9, AROCLOR 1254, Method: STANDARD PLATE) was “inactive; negative”, the mutagenic call (Test System: E. COLI, Strain/Indicator: WP2 UVRA, Metabolic Activation: HAMSTER, LIVER, S-9, AROCLOR 1254, Method: STANDARD PLATE) was “inactive; negative” and the mutagenic call (Test System: E. COLI, Strain/Indicator: WP2 UVRA, Metabolic Activation: HAMSTER, LIVER, S-9, Method: STANDARD PLATE) was “inactive; negative”. The mutagenic call (Test System: E. COLI, Strain/Indicator: WP2 UVRA, Metabolic Activation: MOUSE, LIVER, S-9, AROCLOR 1254, Method: STANDARD PLATE) was “inactive; negative”, the mutagenic call (Test System: E. COLI, Strain/Indicator: WP2 UVRA, Metabolic Activation: MOUSE, LIVER, S-9, Method: STANDARD PLATE) was “inactive; negative” and the mutagenic call (Test System: E. COLI, Strain/Indicator: WP2 UVRA, Metabolic Activation: NONE, Method: STANDARD PLATE) was “inactive; negative”. For the same compound, the mutagenic call (Test System: E. COLI, Strain/Indicator: WP2 UVRA, Metabolic Activation: RAT, LIVER, S-9, AROCLOR 1254, Method: STANDARD PLATE) was “inactive; negative”, the mutagenic call (Test System: E. COLI, Strain/Indicator: WP2 UVRA, Metabolic Activation: RAT, LIVER, S-9, Method: STANDARD PLATE) was “inactive; negative” and the mutagenic call (Test System: E.COLI, Strain/Indicator: WP2UVRA/PKM101, Metabolic Activation: NONE, Method: PREINCUBATION) was “inactive; negative”. For the same compound, the mutagenic call (Test System: E.COLI, Strain/Indicator: WP2UVRA/PKM101, Metabolic Activation: RAT LIVER S-9, PHENOBARBITAL AND BETA-NAPHTHOFLAVONE, Method: PREINCUBATION) was “inactive; negative”, the mutagenic call (Test System: E.COLI, Strain/Indicator: WP2UVRA, Metabolic Activation: NONE, Method: PREINCUBATION) was “inactive; negative” and the mutagenic call (Test System: E.COLI, Strain/Indicator: WP2UVRA, Metabolic Activation: RAT LIVER S-9, PHENOBARBITAL AND BETA-NAPHTHOFLAVONE, Method: PREINCUBATION) was “inactive; negative”. For the same compound, the mutagenic call (Test System: MOUSE LYMPHOMA, Strain/Indicator: L5178Y (TK+/TK-), Metabolic Activation: NONE, Method: SUSPENSION/PLATE) was “active; positive”, the mutagenic call (Test System: Mouse lymphoma, Strain/Indicator: L5178Y (tk+/tk-), Metabolic Activation: None, Method: Suspension/plate) was “inactive; negative” and the mutagenic call (Test System: Mouse lymphoma, Strain/Indicator: L5178Y (tk+/tk-), Metabolic Activation: Rat, Liver, S-9, Aroclor 1254, Method: Suspension/plate) was “inactive; negative”.
